Source: publication PMC8632988, “Inhibition of SYK and cSrc kinases can protect bone and cartilage in preclinical models of osteoarthritis and rheumatoid arthritis” (Scientific Reports, 2021)
Several values for one entry are separate records, joined by “and”; a condition that tells them apart may be missing. Identical values can stand only once.

Columns and labels:
Lewis rats, CIA model = test: Collagen-induced semi-established arthritis model in rats; assay type: in vivo, rat
Protocol: Rat CIA model was performed was performed at Pharmenterprises, Russia and approved by Ethics Committee of Pharmenterprises. Female Lewis rats with body weight of 164–183 g (Charles River Laboratories, Inc., Wilmington, MA) were injected with porcine type II collagen (Chondrex) emulsified with Freund’s Incomplete Adjuvant (Sigma Aldrich) at two sites at the base of the tail according to standard protocol. On day 7, the rats were boosted with a second subcutaneous injection. On day 6 of the study, rats were randomized by body weight into six groups: a control group of four, and five treatment groups of eight. […] Disease progression was monitored via daily ankle thickness measurements. At study termination on day 16 rats were anesthetized with Isoflurane, bled by vacutainer through the descending aorta to exsanguinate and then euthanized for tissue collection. Hind paws were transected at the level of the medial and lateral malleolus, weighed, and collected for microscopy.
[…]

mongrel rats, AIA model = test: Adjuvant-induced arthritis in rats; assay type: in vivo
Protocol: Rat adjuvant-induced arthritis (AIA) model was performed at Pharmenterprises, Russia as described previously^3 and approved by Ethics Committee of Pharmenterprises. Male 10 week old mongrel rats were divided into eleven groups: negative control (#1), positive control (#2) and nine treatment groups (#3–11), ten […] in each group. Group #1 was left intact, while subplantar injection of 0.1 mL of Complete Freund’s adjuvant (CFA, Sigma) was made on day 0 at right paws of rats in groups […]. […] Disease progression was monitored by measuring volumes of the right (involved) and left (non-involved) paws on days 0, 14, 18, 21, 25, and 28.

[1] = knee, day 16, MT-SYK-03 103 mg/kg PO BID + MTX Veh PO QD, vs vehicle
[2] = knee, day 16, MT-SYK-03 207 mg/kg PO BID + MTX Veh PO QD, group mean
[3] = knee, day 16, MT-SYK-03 207 mg/kg PO BID + MTX Veh PO QD, individual joint (animal, R/L), 207 mg/kg
[4] = knee, day 16, MT-SYK-03 207 mg/kg PO BID + MTX Veh PO QD, vs vehicle

COc1cc(Nc2ncnc(Nc3cc4c(cn3)NC(=O)C(C)(C)O4)n2)cc(OC)c1OC [MT-SYK-03]
Pannus score, % inhibition (Lewis rats, CIA model; [1]): 4%
Summed Histopathology Scores, % inhibition (Lewis rats, CIA model; [1]): 13%
Bone Resorption score, Mean (Lewis rats, CIA model; [2]): 0.16
Cartilage Damage score, Mean (Lewis rats, CIA model; [2]): 0.56
Inflammation score, Mean (Lewis rats, CIA model; [2]): 1.59
Pannus score, Mean (Lewis rats, CIA model; [2]): 0.41
Summed Histopathology Scores, Mean (Lewis rats, CIA model; [2]): 2.63
Bone Resorption score (0=normal to 5=severe) (Lewis rats, CIA model; [3]): 0.5 and 1 and 0
Cartilage Damage score (0=normal to 5=severe) (Lewis rats, CIA model; [3]): 1 and 0 and 0.5
Inflammation score (0=normal to 5=severe) (Lewis rats, CIA model; [3]): 4 and 1 and 0 and 2 and 3 and 0.5
Pannus score (0=normal to 5=severe) (Lewis rats, CIA model; [3]): 0.5 and 1 and 0
Summed Histopathology Scores (Lewis rats, CIA model; [3]): 6 and 7 and 2.5 and 0 and 3 and 4.5 and 2 and 5 and 5.5 and 3.5 and 0.5
Bone Resorption score, ANOVA to Vehicle (Lewis rats, CIA model; knee, day 16, MT-SYK-03 207 mg/kg PO BID + MTX Veh PO QD, p value): p < 0.05
Bone Resorption score, % inhibition (Lewis rats, CIA model; [4]): 78%
Cartilage Damage score, % inhibition (Lewis rats, CIA model; [4]): 57%
Inflammation score, % inhibition (Lewis rats, CIA model; [4]): 50%
Pannus score, % inhibition (Lewis rats, CIA model; [4]): 46%
Summed Histopathology Scores, % inhibition (Lewis rats, CIA model; [4]): 56%
Histopathology scores for cartilage damage and bone resorption, ankles and knees (Lewis rats, CIA model; rat CIA, day 16): chondroprotective and antiresorptive effects
Histopathology scores of inflammation and pannus formation (Lewis rats, CIA model; rat CIA, day 16): smaller
Relative weights of thymus, liver and spleen (Lewis rats, CIA model; rat CIA, day 16): statistically identical across all groups
Animal death (mongrel rats, AIA model; MT-SYK-03 52 mg/kg BID intragastric, 14 days): 0%
Animal death (mongrel rats, AIA model; MT-SYK-03 52 mg/kg BID intragastric, 18 days): 0%
Animal death (mongrel rats, AIA model; MT-SYK-03 52 mg/kg BID intragastric, 21 days): 0%
Animal death (mongrel rats, AIA model; MT-SYK-03 52 mg/kg BID intragastric, 25 days): 0%
Animal death (mongrel rats, AIA model; MT-SYK-03 52 mg/kg BID intragastric, 28 days): 0%
Animal death (mongrel rats, AIA model; MT-SYK-03 103 mg/kg BID intragastric, 14 days): 0%
Animal death (mongrel rats, AIA model; MT-SYK-03 103 mg/kg BID intragastric, 18 days): 0%
Animal death (mongrel rats, AIA model; MT-SYK-03 103 mg/kg BID intragastric, 21 days): 0%
Animal death (mongrel rats, AIA model; MT-SYK-03 103 mg/kg BID intragastric, 25 days): 0%
Animal death (mongrel rats, AIA model; MT-SYK-03 103 mg/kg BID intragastric, 28 days): 0%
Animal death (mongrel rats, AIA model; MT-SYK-03 207 mg/kg QD intragastric, 14 days): 0%
Animal death (mongrel rats, AIA model; MT-SYK-03 207 mg/kg QD intragastric, 18 days): 0%
Animal death (mongrel rats, AIA model; MT-SYK-03 207 mg/kg QD intragastric, 21 days): 0%
Animal death (mongrel rats, AIA model; MT-SYK-03 207 mg/kg QD intragastric, 25 days): 0%
Animal death (mongrel rats, AIA model; MT-SYK-03 207 mg/kg QD intragastric, 28 days): 0%
The increase in the volume of the paws relative to the initial level (mongrel rats, AIA model; non-involved paws, MT-SYK-03 52 mg/kg BID intragastric, 18 days): 22.55±2.93& %
The increase in the volume of the paws relative to the initial level (mongrel rats, AIA model; non-involved paws, MT-SYK-03 52 mg/kg BID intragastric, 21 days): 23.66±3.25& %
The increase in the volume of the paws relative to the initial level (mongrel rats, AIA model; non-involved paws, MT-SYK-03 52 mg/kg BID intragastric, 25 days): 24.39±2.8& %
The increase in the volume of the paws relative to the initial level (mongrel rats, AIA model; non-involved paws, MT-SYK-03 52 mg/kg BID intragastric, 28 days): 25.25±2.86& %
The increase in the volume of the paws relative to the initial level (mongrel rats, AIA model; non-involved paws, MT-SYK-03 103 mg/kg BID intragastric, 14 days): 11.22±1.26& %
The increase in the volume of the paws relative to the initial level (mongrel rats, AIA model; non-involved paws, MT-SYK-03 103 mg/kg BID intragastric, 18 days): 17.42±1.16& %
The increase in the volume of the paws relative to the initial level (mongrel rats, AIA model; non-involved paws, MT-SYK-03 103 mg/kg BID intragastric, 21 days): 20.38±2.11& %
The increase in the volume of the paws relative to the initial level (mongrel rats, AIA model; non-involved paws, MT-SYK-03 103 mg/kg BID intragastric, 25 days): 22.35±2.28& %
The increase in the volume of the paws relative to the initial level (mongrel rats, AIA model; non-involved paws, MT-SYK-03 103 mg/kg BID intragastric, 28 days): 21.41±2.05&# %
The increase in the volume of the paws relative to the initial level (mongrel rats, AIA model; non-involved paws, MT-SYK-03 207 mg/kg QD intragastric, 14 days): 14.3±1.82& %
The increase in the volume of the paws relative to the initial level (mongrel rats, AIA model; non-involved paws, MT-SYK-03 207 mg/kg QD intragastric, 18 days): 19.97±1.89& %
The increase in the volume of the paws relative to the initial level (mongrel rats, AIA model; non-involved paws, MT-SYK-03 207 mg/kg QD intragastric, 21 days): 21.15±1.89& %
The increase in the volume of the paws relative to the initial level (mongrel rats, AIA model; non-involved paws, MT-SYK-03 207 mg/kg QD intragastric, 25 days): 22.51±1.61& %
The increase in the volume of the paws relative to the initial level (mongrel rats, AIA model; non-involved paws, MT-SYK-03 207 mg/kg QD intragastric, 28 days): 21.94±1.37&# %
The increase in the volume of the paws relative to the initial level (mongrel rats, AIA model; po, 52 mg/kg, 336 h): 13.93±1.83& %
Rats died (mongrel rats, AIA model; rat AIA, MT-SYK-03): 0%
Volume of non-involved paws (mongrel rats, AIA model; rat AIA, MT-SYK-03 103 and 207 mg/kg, day 28): decreased the volume of non-involved paws
The increase in the volume of the paws relative to the initial level (mongrel rats, AIA model; treated paws, MT-SYK-03 52 mg/kg BID intragastric, 14 days): 77.6 ± 4.53 & %
The increase in the volume of the paws relative to the initial level (mongrel rats, AIA model; treated paws, MT-SYK-03 52 mg/kg BID intragastric, 18 days): 85.72 ± 3.7 & %
The increase in the volume of the paws relative to the initial level (mongrel rats, AIA model; treated paws, MT-SYK-03 52 mg/kg BID intragastric, 21 days): 88.24 ± 4.4 & %
The increase in the volume of the paws relative to the initial level (mongrel rats, AIA model; treated paws, MT-SYK-03 52 mg/kg BID intragastric, 25 days): 94.75 ± 7.18 & %
The increase in the volume of the paws relative to the initial level (mongrel rats, AIA model; treated paws, MT-SYK-03 52 mg/kg BID intragastric, 28 days): 93.88 ± 6.77 & %
The increase in the volume of the paws relative to the initial level (mongrel rats, AIA model; treated paws, MT-SYK-03 103 mg/kg BID intragastric, 14 days): 76.18 ± 7.73 & %
The increase in the volume of the paws relative to the initial level (mongrel rats, AIA model; treated paws, MT-SYK-03 103 mg/kg BID intragastric, 18 days): 85.98 ± 7.51 & %
The increase in the volume of the paws relative to the initial level (mongrel rats, AIA model; treated paws, MT-SYK-03 103 mg/kg BID intragastric, 21 days): 86.55 ± 8.13 & %
The increase in the volume of the paws relative to the initial level (mongrel rats, AIA model; treated paws, MT-SYK-03 103 mg/kg BID intragastric, 25 days): 86.47 ± 7.89 & %
The increase in the volume of the paws relative to the initial level (mongrel rats, AIA model; treated paws, MT-SYK-03 103 mg/kg BID intragastric, 28 days): 89.02 ± 7.37 & %
The increase in the volume of the paws relative to the initial level (mongrel rats, AIA model; treated paws, MT-SYK-03 207 mg/kg QD intragastric, 14 days): 81.54 ± 6.88 & %
The increase in the volume of the paws relative to the initial level (mongrel rats, AIA model; treated paws, MT-SYK-03 207 mg/kg QD intragastric, 18 days): 82.92 ± 6.64 & %
The increase in the volume of the paws relative to the initial level (mongrel rats, AIA model; treated paws, MT-SYK-03 207 mg/kg QD intragastric, 21 days): 83.22 ± 6.53 & %
The increase in the volume of the paws relative to the initial level (mongrel rats, AIA model; treated paws, MT-SYK-03 207 mg/kg QD intragastric, 25 days): 88.58 ± 7.8 & %
The increase in the volume of the paws relative to the initial level (mongrel rats, AIA model; treated paws, MT-SYK-03 207 mg/kg QD intragastric, 28 days): 93.67 ± 9.08 & %
